# How the values were obtained:
# Format in all cases: in vivo
# [1] = tested on: Anemic pregnant human patients; assay: Topical vs oral vs intravenous iron for anemia in pregnancy
# Description: In this experiment, iron (in the form of ferrous sulfate) in formulations of the invention was tested for its ability to treat anemia in pregnant patients, and compared to orally or intravenously delivered iron supplementation.
# In vivo tests were performed as follows: Anemic pregnant human patients were treated with either topical, oral or intravenous iron supplementation during 14 to 34 weeks of pregnancy. Trial design was built to assess these primary outcomes: haemoglobin and serum ferritin levels. Treatment groups randomized as follows: • a. Oral iron supplement group (200 mg of ferrous fumarate per day) • b. Intravenous iron supplement group (200 mg of iron sucrose was administered in 100 ml 0.9% sodium chloride per day) • c. Topical iron supplement group (3.34 g of topical formulation applied per day) Formulations detailed in Table 3 below
# [2] = tested on: Anemic human patients with progressive renal insufficiency; assay: Topical vs oral vs intravenous iron supplementation in anemic patients with progressive renal insufficiency treated with erythropoietin
# Description: In this experiment, iron (in the form of ferrous sulfate) in formulations of the invention was tested for its ability to treat anemia in patients with progressive renal insufficiency, and compared to orally or intravenously delivered iron supplementation.
# In vivo tests were performed as follows: Anemic human patients with progressive renal insufficiency were treated with either topical, oral or intravenous iron supplementation and evaluated at baseline, 3 months and 6 months. Trial design was built to assess these primary outcomes: hemoglobin response, serum ferritin levels, changes in red cell hypochromasia, and incidence of adverse events. Treatment groups randomized as follows: • Oral iron supplement group (ferrous sulphate 200 mg tds) • Intravenous iron supplement group (300 mg iron sucrose monthly) • Topical iron supplement group (3.34 g of topical formulation applied tds) Formulations detailed below in Table 1 • In all groups Erythropoietin (rHuEpo) treatment was simultaneously commenced.
# [3] = tested on: human iron-depleted, nonanemic women; assay: Topical vs oral iron to improve endurance after training in iron-depleted, nonanemic women; conditions: oral = ferrous sulfate 100 mg per day
# Description: In this experiment, iron (in the form of ferrous sulfate) in formulations of the invention was tested for its ability to help improve endurance after training in iron-depleted, nonanemic women and compared to orally delivered iron supplementation.
# In vivo tests were performed as follows: human iron-depleted (serum ferritin <16 μg/l), nonanemic (Hb >12 g/dl) women (18-33 yr old) were treated with either topical or oral iron supplementation for 6 weeks. Subjects trained for 30 min/day, 5 days/wk at 75-85% of maximum heart rate for the final 4 wk of the study. Trial design was built to assess this primary outcome: change in 15 km time from baseline to […]. Treatment groups randomized as follows: • a. Control group: oral placebo • b. Oral iron supplement group (100 mg of ferrous sulfate per day) • c. Topical iron supplement group (1.67 g of topical formulation applied daily) Formulations detailed in Table 6 below
# [4] = tested on: Anemic human patients with progressive renal insufficiency; assay: Topical vs oral vs intravenous iron for iron deficiency in non-hemodialysis-dependent patients with chronic kidney disease; conditions: oral = ferrous sulphate 325 mg thrice daily; intravenous ferric carboxymaltose; topical = 5.42 g Table 2 formulation tds
# Description: In this experiment, iron (in the form of ferrous sulfate) in formulations of the invention was tested for its ability to treat iron deficiency in non-hemodialysis dependent patients with chronic kidney disease, and compared to orally or intravenously delivered iron supplementation.
# In vivo tests were performed as follows: Anemic human patients with progressive renal insufficiency were treated with either topical, oral or intravenous iron supplementation. Trial design was built to assess these primary outcomes: hemoglobin response, and incidence of adverse events. Treatment groups randomized as follows: • a. Oral iron supplement group (ferrous sulphate 325 mg thrice daily for a total of 195 mg elemental iron daily) • b. Intravenous iron supplement group (intravenous ferric carboxymaltose 1000 mg over 15 min (with up to two additional doses of 500 mg at 2-week intervals)) • c. Topical iron supplement group (5.42 g of topical formulation applied tds) Formulations detailed in Table 2 below.
# [5] = tested on: human IBD patients with anemia; assay: Topical vs oral vs intravenous iron for anemia in inflammatory bowel disease
# Description: In this experiment, iron (in the form of ferrous sulfate) in formulations of the invention was tested for its ability to help treat anemia in inflammatory bowel disease (IBD) patients and compared to orally or intravenously delivered iron supplementation.
# In vivo tests were performed as follows: human IBD patients with anemia were treated with either topical, oral or intravenous iron supplementation for 12 weeks. Trial design was built to assess this primary outcome: change in hemoglobin (Hb) from baseline to week 12. Treatment groups randomized as follows: • a. Oral iron supplement group (FeSulf containing 100 mg ferrous iron (II). Patients received one capsule b.i.d. for 12 wk) • b. Intravenous iron supplement group (ferric carboxymaltose (FeCarb) 50 mg ferric iron (III) per milliliter in water with individual patient dosage calculated according to the formula of Ganzoni) • c. Topical iron supplement group (1.67 g of topical formulation applied b.i.d.) Formulations detailed in Table 5 below
# [6] = tested on: human patients with chemotherapy-related anemia; assay: Topical vs oral vs intravenous iron in anemic cancer patients receiving darbepoetin alfa; conditions: 8 weeks, with darbepoetin alfa 500 mcg every 3 weeks; oral = sucrosomial iron 30 mg daily; IV = ferric gluconate 125 mg weekly; topical = 0.50 g Table 4 formulation daily
# Description: In this experiment, iron (in the form of ferrous sulfate) in formulations of the invention was tested for its ability to help treat chemotherapy-induced anemia in cancer patients when combined with erythropoiesis-stimulating agents (ESAs), and compared to orally or intravenously delivered iron supplementation. […] Trial design was built to assess this primary outcome: Hb response as defined as the Hb increase ≥2 g/dL from baseline or the attainment Hb ≥12 g/dL. Treatment groups randomized as follows: • a. Oral iron supplement group (sucrosomial iron 30 mg daily) • b. […] Topical iron supplement group (0.50 g of topical formulation applied daily) Formulations detailed in Table 4 below
compound,measurement,setting,value
O=C([O-])/C=C/C(=O)[O-].[Fe+2] [ferrous fumarate],participants with an improvement in hemoglobin more than 20 g/L,[1]; same arms as E9,11%
O=S(=O)([O-])[O-].[Fe+2] [ferrous sulphate],"allergic reactions reported, share of patients","[2]; oral = ferrous sulphate, intravenous = iron sucrose, transdermal = Table 1 formulation",none
same,decrease in 15-km time vs the placebo control group,[3]; topical = 1.67 g Table 6 formulation daily,statistically significantly greater
same,"decrease in 15-km time, oral versus transdermal",[3]; transdermal = 1.67 g Table 6 formulation daily,no statistical difference
ferric carboxymaltose,treatment-related adverse events,[4],2.7%
same,median Hb after treatment (week 12),"[5]; 12 weeks, same arms as E16",12.3 g/dL
same,median Hb at baseline,"[5]; before treatment, oral = FeSulf 100 mg ferrous iron b.i.d., IV = ferric carboxymaltose (Ganzoni dose), topical = 1.67 g Table 5 formulation b.i.d.",8.7 g/dL
ferric gluconate,patients achieving an erythropoietic (Hb) response: Hb increase ≥2 g/dL from baseline or Hb ≥12 g/dL,[6],Seventy one
iron sucrose,change in hemoglobin,"[1]; pregnant women, 14 to 34 weeks of pregnancy, oral = ferrous fumarate 200 mg per day, intravenous = iron sucrose 200 mg per day, topical = 3.34 g Table 3 formulation per day",22 ± 11.5 g/L
same,patients with increase in ferritin level between 51 to 100 ng/ml,[1]; same arms as E9,48%
same,serum ferritin levels versus oral,"[2]; comparator oral ferrous sulphate 200 mg tds, intravenous = iron sucrose 300 mg monthly, topical = 3.34 g Table 1 formulation tds",statistical significantly higher
same,"allergic reactions reported, share of patients","[2]; human, in vivo",10%
same,"serum ferritin levels, topical versus intravenous","[2]; intravenous = iron sucrose 300 mg monthly, topical = 3.34 g Table 1 formulation tds",not statistically different
